Laboratory results as given in patent publication US20160281050A1, “METHODS FOR TREATING A CULTURE OF HAEMATOCOCCUS PLUVIALIS FOR CONTAMINATION USING SALT AND HYDROGEN PEROXIDE” (HELIAE DEVELOPMENT LLC, priority 2015, published 2016).

Test system: chytrids
Assay: % chytrid infection in 230 L reactors, salt treatment (Example 12)
Assay type: cell-based
Protocol: This test was done side by side in flasks (0.1 L) and in reactors located in a greenhouse operating in conditions: reactor volume of 230 L; Daily PAR of 20 mol m^−2 d^−1; pH (not measured); and paddlewheel speed of 21 RPM. […] The flask cultures were mixed by shaking at 140 rpm and received 300-400 μmol/m^2 s of photosynthetically active radiation (PAR) in 12 hour light cycles and constant supply of 2.5% CO2. The motility of the culture was monitored by visual observation under a microscope. […] Nine 230 L reactors were also seeded with culture from bioreactor #2410 on the same day as the flasks and brought to 2 ppt concentration of salt. Once motility of the cells was reduced to <10% (day 3 of culture for flasks and day 2 for 230 L reactors) the level of salt was elevated to a point between 4-18 ppt and compared to the culture in two reactors remaining at 2 ppt salt. Flasks and 230 L reactors were monitored for percentage of cell lysis via visual observation under a microscope, culture dry weight (biomass accumulation in g/L), and percentage of chytrid infection via visual observation under a microscope. Carotenoid production, a proxy for determining astaxanthin, was quantified every other day of culture in the 230 L reactors using the UV method.

With `[Cl-].[Na+]` [NaCl, sodium chloride] as the compound, how does the “% Chytrid infection in 230L reactors” value (4 ppt, 2 d) read?
Its value is 0.00%.

And the “% Chytrid infection in 230L reactors” value (4 ppt, 3 d)?
The value was 1.67%.

And the “% Chytrid infection in 230L reactors” value (4 ppt, 4 d)?
Its value is 0.00%.

What about the “% Chytrid infection in 230L reactors” value (4 ppt, 5 d) of the same compound?
Its value is 0.00%.

What about the “% Chytrid infection in 230L reactors” value (4 ppt, 6 d) of the same compound?
Its value is 0.00%.

And the “% Chytrid infection in 230L reactors” value (4 ppt, 7 d)?
The value was 1.67%.

What about the “% Chytrid infection in 230L reactors” value (4 ppt, 8 d) of the same compound?
The value was 0.00%.

And the “% Chytrid infection in 230L reactors” value (4 ppt, 9 d)?
The value was 11.67%.

And the “% Chytrid infection in 230L reactors” value (4 ppt, 10 d)?
The value was 30.00%.

And the “% Chytrid infection in 230L reactors” value (4 ppt, 11 d)?
Its value is 36.67%.

What about the “% Chytrid infection in 230L reactors” value (4 ppt, 12 d) of the same compound?
Its value is 65.00%.

And the “% Chytrid infection in 230L reactors” value (5 ppt, 2 d)?
Its value is 1.67%.

What about the “% Chytrid infection in 230L reactors” value (5 ppt, 3 d) of the same compound?
Its value is 0.00%.

What about the “% Chytrid infection in 230L reactors” value (5 ppt, 4 d) of the same compound?
The value was 1.67%.

What about the “% Chytrid infection in 230L reactors” value (5 ppt, 5 d) of the same compound?
The value was 0.00%.

What about the “% Chytrid infection in 230L reactors” value (5 ppt, 6 d) of the same compound?
The value was 0.00%.

What about the “% Chytrid infection in 230L reactors” value (5 ppt, 7 d) of the same compound?
Its value is 8.33%.

What about the “% Chytrid infection in 230L reactors” value (5 ppt, 8 d) of the same compound?
The value was 0.00%.

And the “% Chytrid infection in 230L reactors” value (5 ppt, 9 d)?
Its value is 10.00%.

And the “% Chytrid infection in 230L reactors” value (5 ppt, 10 d)?
The value was 3.33%.

What about the “% Chytrid infection in 230L reactors” value (5 ppt, 11 d) of the same compound?
Its value is 13.33%.

What about the “% Chytrid infection in 230L reactors” value (5 ppt, 12 d) of the same compound?
The value was 28.33%.

What about the “% Chytrid infection in 230L reactors” value (6 ppt, 2 d) of the same compound?
The value was 1.67%.

And the “% Chytrid infection in 230L reactors” value (6 ppt, 3 d)?
The value was 0.00%.

What about the “% Chytrid infection in 230L reactors” value (6 ppt, 4 d) of the same compound?
Its value is 1.67%.

And the “% Chytrid infection in 230L reactors” value (6 ppt, 5 d)?
The value was 1.67%.

What about the “% Chytrid infection in 230L reactors” value (6 ppt, 6 d) of the same compound?
The value was 1.67%.

And the “% Chytrid infection in 230L reactors” value (6 ppt, 7 d)?
Its value is 5.00%.

What about the “% Chytrid infection in 230L reactors” value (6 ppt, 8 d) of the same compound?
The value was 3.33%.

And the “% Chytrid infection in 230L reactors” value (6 ppt, 9 d)?
Its value is 0.00%.

What about the “% Chytrid infection in 230L reactors” value (6 ppt, 10 d) of the same compound?
The value was 1.67%.

And the “% Chytrid infection in 230L reactors” value (6 ppt, 11 d)?
Its value is 0.00%.

And the “% Chytrid infection in 230L reactors” value (6 ppt, 12 d)?
Its value is 15.00%.

And the “% Chytrid infection in 230L reactors” value (7 ppt, 2 d)?
Its value is 3.33%.

And the “% Chytrid infection in 230L reactors” value (7 ppt, 3 d)?
Its value is 0.00%.

And the “% Chytrid infection in 230L reactors” value (7 ppt, 4 d)?
Its value is 0.00%.

What about the “% Chytrid infection in 230L reactors” value (7 ppt, 5 d) of the same compound?
Its value is 1.67%.

What about the “% Chytrid infection in 230L reactors” value (7 ppt, 6 d) of the same compound?
The value was 0.00%.

And the “% Chytrid infection in 230L reactors” value (7 ppt, 7 d)?
Its value is 5.00%.

What about the “% Chytrid infection in 230L reactors” value (7 ppt, 8 d) of the same compound?
The value was 1.67%.

What about the “% Chytrid infection in 230L reactors” value (7 ppt, 9 d) of the same compound?
Its value is 3.33%.

And the “% Chytrid infection in 230L reactors” value (7 ppt, 10 d)?
The value was 5.00%.

And the “% Chytrid infection in 230L reactors” value (7 ppt, 11 d)?
The value was 0.00%.

What about the “% Chytrid infection in 230L reactors” value (7 ppt, 12 d) of the same compound?
Its value is 3.33%.

And the “% Chytrid infection in 230L reactors” value (8 ppt, 2 d)?
Its value is 0.00%.

What about the “% Chytrid infection in 230L reactors” value (8 ppt, 3 d) of the same compound?
The value was 0.00%.

What about the “% Chytrid infection in 230L reactors” value (8 ppt, 4 d) of the same compound?
The value was 0.00%.

And the “% Chytrid infection in 230L reactors” value (8 ppt, 5 d)?
The value was 1.67%.

And the “% Chytrid infection in 230L reactors” value (8 ppt, 6 d)?
Its value is 0.00%.

And the “% Chytrid infection in 230L reactors” value (8 ppt, 7 d)?
The value was 0.00%.

And the “% Chytrid infection in 230L reactors” value (8 ppt, 8 d)?
The value was 0.00%.

And the “% Chytrid infection in 230L reactors” value (8 ppt, 9 d)?
The value was 0.00%.

What about the “% Chytrid infection in 230L reactors” value (8 ppt, 10 d) of the same compound?
The value was 1.67%.

What about the “% Chytrid infection in 230L reactors” value (8 ppt, 11 d) of the same compound?
The value was 1.67%.

And the “% Chytrid infection in 230L reactors” value (8 ppt, 12 d)?
Its value is 3.33%.

What about the “% Chytrid infection in 230L reactors” value (10 ppt, 2 d) of the same compound?
Its value is 0.00%.

What about the “% Chytrid infection in 230L reactors” value (10 ppt, 3 d) of the same compound?
Its value is 0.00%.

What about the “% Chytrid infection in 230L reactors” value (10 ppt, 4 d) of the same compound?
Its value is 1.67%.

What about the “% Chytrid infection in 230L reactors” value (10 ppt, 5 d) of the same compound?
Its value is 0.00%.

What about the “% Chytrid infection in 230L reactors” value (10 ppt, 6 d) of the same compound?
The value was 0.00%.

And the “% Chytrid infection in 230L reactors” value (10 ppt, 7 d)?
The value was 0.00%.

What about the “% Chytrid infection in 230L reactors” value (10 ppt, 8 d) of the same compound?
The value was 0.00%.

And the “% Chytrid infection in 230L reactors” value (10 ppt, 9 d)?
Its value is 1.67%.

What about the “% Chytrid infection in 230L reactors” value (10 ppt, 10 d) of the same compound?
Its value is 0.00%.

And the “% Chytrid infection in 230L reactors” value (10 ppt, 11 d)?
The value was 6.67%.

What about the “% Chytrid infection in 230L reactors” value (10 ppt, 12 d) of the same compound?
The value was 3.33%.

And the “% Chytrid infection in 230L reactors” value (18 ppt, 2 d)?
Its value is 0.00%.

And the “% Chytrid infection in 230L reactors” value (18 ppt, 3 d)?
The value was 0.00%.

And the “% Chytrid infection in 230L reactors” value (18 ppt, 4 d)?
The value was 0.00%.

And the “% Chytrid infection in 230L reactors” value (18 ppt, 5 d)?
The value was 3.33%.

And the “% Chytrid infection in 230L reactors” value (18 ppt, 6 d)?
The value was 0.00%.

What about the “% Chytrid infection in 230L reactors” value (18 ppt, 7 d) of the same compound?
The value was 0.00%.

And the “% Chytrid infection in 230L reactors” value (18 ppt, 8 d)?
The value was 1.67%.

What about the “% Chytrid infection in 230L reactors” value (18 ppt, 9 d) of the same compound?
The value was 3.33%.

What about the “% Chytrid infection in 230L reactors” value (18 ppt, 10 d) of the same compound?
The value was 0.00%.

What about the “% Chytrid infection in 230L reactors” value (18 ppt, 11 d) of the same compound?
The value was 1.67%.

What about the “% Chytrid infection in 230L reactors” value (18 ppt, 12 d) of the same compound?
Its value is 1.67%.

And the chytrid infection (treatments at 7 ppt and above in 230 L reactors)?
The chytrid infection was 5-10%.
